Laboratory results as given in BindingDB's records for doi:10.1111/j.1747-0285.2012.01362.x (Washington University, 2012).

These molecules were tested against T1, PhoP (Salmonella enterica I, UniProt A6XC03) (assay: Inhibition Assay).
T1 sequence (A6XC03 whole entry): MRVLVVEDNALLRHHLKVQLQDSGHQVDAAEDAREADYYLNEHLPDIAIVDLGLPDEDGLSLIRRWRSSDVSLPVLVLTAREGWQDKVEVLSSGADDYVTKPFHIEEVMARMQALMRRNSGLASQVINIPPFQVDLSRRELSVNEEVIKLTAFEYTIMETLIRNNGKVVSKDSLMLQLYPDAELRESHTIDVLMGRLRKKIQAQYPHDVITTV
Source text: Inhibition of a protein-protein activity by EMSA assay.
With `O=C1c2ccccc2C(=O)c2c1ccc(C(=O)O)c2-c1cccc2ccccc12` [NSC9608, 1] the IC50 was 11000 µM.
Work on `O=C(C[n+]1ccc2ccccc2c1)c1ccc2ccc3ccccc3c2c1` [NSC35489, 4] yielded an IC50 of 14000 µM.
Molecule `O=S(=O)(O)c1ccc2c(N=Nc3c(O)ccc4ccccc34)cccc2c1` [NSC45576, 2] has an IC50 of 12 µM.
In the case of `CN(C)CCC(=O)C1(O)CCC2C3CC=C4CC(O)CCC4(C)C3CCC21C` (stereo not drawn) [NSC48630, 3], the IC50 is reported as 3.6 µM.
For `CC(C)c1ccc2c(c1)CCC1C(C)(CN)CCCC21C` (stereo not drawn) [NSC65238, 5], the IC50 was 20 µM.
With `CC12CCC(=O)C=C1CCC1C2CCC2(C)C(C(=O)COS(=O)(=O)c3ccc(Br)cc3)CCC12` (stereo not drawn) [NSC88915, 6] the IC50 was 17 µM.
With `c1ccc(C[n+]2cccc(-c3cc4ccccc4[nH]3)c2)cc1` [NSC118806, 7] the IC50 was 109 µM.
For `N#Cc1ccc(OC(=O)c2ccc(NC(=N)N)cc2)cc1` [NSC168197, 8], the IC50 was 285 µM.
